Results from patent publication US8685369B2, “Technetium- and rhenium-bis (heteroaryl) complexes, and methods of use thereof” (priority 2004, dated 2014).

Assay type: physicochemical
Protocol: The stability and robustness of the technetium-di(pyridine) complexes was assessed using challenges with free cysteine and histidine. Specifically, the experiments were performed using [^99mTc(CO)3(dipyridinemethylamine)]^+1.
[^99mTc(CO)3(H2O)3]^+ was heated with [{N,N-di(pyridyl-2-methyl)}N-butyl-phthalimide in 0.5 mL (1 mg/mL) of methanol at 100° C. for 60 minutes. […] The product eluted with methanol at 20.8 minutes. The HPLC analysis was performed using a Supelco C18 column, 25 cm×4.6 mm column (5 μm pore size), equipped with 2 cm guard using solvent A=0.05 M triethylammonium phosphate buffer pH 2.5 and solvent B=methanol. The method employed was a gradient 5-95% B, 1 mL/minute for 30 minutes. The gradient ramped from 5-95 from 3-20 minutes.

stability in challenges with free cysteine and histidine: stable
change in the components by HPLC on incubation with cysteine (aqueous solution, cysteine, 18 hours at 37° C. at pH 7.4): no significant change
Substance: [^99mTc(CO)3(dipyridinemethylamine)]^+1
